Consider twelve compounds from patent US4952585A, “Castanospermine esters in the inhibition of tumor metastasis” (Merrell Dow Pharmaceuticals Inc., priority 1988, dated 1990).

SMILES strings stand for the structures.

The test system of experiment [1] is B16 F10 melanoma cells. The experiment in a line: inhibition of pulmonary metastases in C57 mice after pretreatment of B16 F10 melanoma cells with test compound in culture. The class given is in vivo, C57 male mice. To be noted: Mus musculus, B16-F10, 360 h, pulmonary foci counted fifteen days after i.v. inoculation, read-out: per cent inhibition of metastases; for inhibition in vivo at 1 µg/mL: cells pretreated 48 hours with 1 μg/ml; for inhibition in vivo at 10 µg/mL: cells pretreated 48 hours with 10 μg/ml. Here is the method: The lungs provide a convenient organ for the study of metastasis in the animal body.
A single suspension of B16 F10 melanoma cells was prepared from a 14 day old maintenance tumor excised from a C57 male mouse. The tumor was minced and trypsinized followed by dissociation of the cells in minimal essential medium (MEM) with fetal calf serum (FCS) by repeated pipetting. The preparation was passed through a sterile gauze pad, centrifuged, and the cell pellet washed in minimal essential medium without fetal calf serum. A trypan blue wet mount was made to determine the percent of viable cells.
The cells were then plated in 100 mm petri dishes at 0.5×10^6 viable cells/10 ml minimal essential medium with fetal calf serum and incubated at 37° C. for 24 to 48 hours. After incubation, the medium was aspirated and 10 ml of the test compounds at the concentrations of 1 μg or 10 μg/ml MEM with FCS was added. After 24 hours incubation, the medium was aspirated and 10 ml of fresh test compound-medium preparation was added.
Test compounds were dissolved in water or dimethyl sulfoxide and then diluted to the testing concentrations with medium. Control plates receive only medium and/or medium containing dimethyl sulfoxide.
After a total of 48 hours incubation, the testing medium was aspirated, the cells trypsinized and suspended in MEM with FCS. The cells were washed in MEM without FCS and resuspended at the concentration of 10×10^5 cells/ml of MEM without FCS.
C57 male mice weighing 20-25 grams (Charles River) were inoculated intravenously via the tail vein with 2×10^5 cells per 0.2 ml MEM without FCS/mouse. Fifteen days after inoculation, the animals were sacrificed by carbon dioxide inhalation and the lungs were removed and placed in formalin solution. The number of pulmonary foci per animal lung was counted (after separating the lobes) under a lighted dissecting lens.
Data can be expressed as the mean number of foci±S.E. per control and treatment groups. Treatment group data is also expressed as a percent of control and percent of inhibition (100% minus % of control). When the procedure described above was carried out on the castanospermine esters listed below, the per cent inhibition of metastases observed [at the dose, in micrograms per milliliter (μg/ml), given in parentheses] was as follows: […]

The subject of experiment [2] is B16 melanoma F10 line cells. Nature of the experiment: inhibition of metastatic foci in the lungs of C57/BL mice injected i.v. with B16 melanoma F10 line cells, test compound given i.p. To be noted: 100 mg/kg, i.p. daily from day 1-15; metastatic foci in the lungs vs. controls. The experiment is classed as in vivo. Here is the method: In another experiment, 1×10^5 viable B16 melanoma F10 line cells were injected i.v. through the tail vein of C57/BL mice. Test compound was then administered at 100 mg/kg, i.p. daily from day 1-15. At the end of 15 days, the animals were sacrificed and the number of metastatic foci in the lungs were quantitated and compared to controls run simultaneously.

For experiment [3], the system named is experimental metastasis. To be noted: mice; Cancer Research, 46, 5215 (1986); cited from earlier work.

Consider `O=C(O[C@H]1CN2CC[C@H](O)[C@@H]2[C@@H](O)[C@@H]1O)c1ccco1` [[1S-(1α,6β,7α,8β,8aβ)]-Octahydro-1,6,7,8-indolizinetetrol 6-(2-furancarboxylate)], for which the inhibition in vivo at 1 µg/mL in experiment [1] came out at 51%. The “% INHIBITION of metastasis” value in experiment [2] was determined as 40%. For the compound `Cc1ccccc1C(=O)O[C@H]1CN2CC[C@H](O)[C@@H]2[C@@H](O)[C@@H]1O` [[1S-(1α,6β,7α,8β,8aβ)]-Octahydro-1,6,7,8-indolizinetetrol 6-(2-methylbenzoate)], in experiment [1], the inhibition in vivo at 10 µg/mL amounted to 71%.

As to `Cc1cccc(C(=O)O[C@H]2CN3CC[C@H](O)[C@@H]3[C@@H](O)[C@@H]2O)c1` [[1S-(1α,6β,7α,8β,8aβ)]-Octahydro-1,6,7,8-indolizinetetrol 6-(3-methylbenzoate)], the inhibition in vivo at 1 µg/mL in experiment [1] amounted to 78%. `COc1ccc(C(=O)O[C@H]2CN3CC[C@H](O)[C@@H]3[C@@H](O)[C@@H]2O)cc1` [[1S-(1α,6β,7α,8β,8aβ)]-octahydro-1,6,7,8-indolizinetetrol 6-(4-methoxybenzoate)]: the inhibition in vivo at 1 µg/mL in experiment [1] came to 19%.

Consider `Cc1ccc(C(=O)O[C@H]2CN3CC[C@H](O)[C@@H]3[C@@H](O)[C@@H]2O)cc1` [[1S-(1α,6β,7α,8β,8aβ)]-octahydro-1,6,7,8-indolizinetetrol 6-(4-methylbenzoate)], for which the inhibition in vivo at 10 µg/mL in experiment [1] is 75%. Further, the “% INHIBITION of metastasis” value in experiment [2] is listed as 71%. In the case of `CC(=O)O[C@H]1CN2CC[C@H](O)[C@@H]2[C@@H](O)[C@@H]1O` [[1S-(1α,6β,7α,8β,8aβ)]-octahydro-1,6,7,8-indolizinetetrol 6-acetate], in experiment [1], the inhibition in vivo at 1 µg/mL was more than 50%. Take `O=C(O[C@H]1CN2CC[C@H](O)[C@@H]2[C@@H](O)[C@@H]1O)c1ccccc1` [[1S-(1α,6β,7α,8β,8aβ)]-octahydro-1,6,7,8-indolizinetetrol 6-benzoate]: in experiment [1], the inhibition in vivo at 1 µg/mL came out at 35%. In experiment [2], the “% INHIBITION of metastasis” value was 66%. On to `CCCC(=O)O[C@H]1CN2CC[C@H](O)[C@@H]2[C@@H](O)[C@@H]1O` [[1S-(1α,6β,7α,8β,8aβ)]-octahydro-1,6,7,8-indolizinetetrol 6-butanoate], for which, in experiment [1], the inhibition in vivo at 10 µg/mL turned out to be 13%.

As to `Cc1ccc(C(=O)O[C@H]2[C@H](O)[C@H]3[C@@H](O)CCN3C[C@@H]2O)cc1` [[1S-(1α,6β,7α,8β,8aβ)]-octahydro-1,6,7,8-indolizinetetrol 7-(4-methylbenzoate)], in experiment [1], the inhibition in vivo at 1 µg/mL was 65%. For the compound `O=C(O[C@H]1[C@H](O)[C@H]2[C@@H](O)CCN2C[C@@H]1O)c1ccccc1` [[1S-(1α,6β,7α,8β,8aβ)]-octahydro-1,6,7,8-indolizinetetrol 7-benzoate], in experiment [1], the inhibition in vivo at 1 µg/mL amounted to 23%.

Take `CCC(=O)O[C@H]1[C@H](O)[C@H]2[C@@H](O)CCN2C[C@@H]1O` [[1S-(1α,6β,7α,8β,8aβ)]-octahydro-1,6,7,8-indolizinetetrol 7-propionate]: in experiment [1], the inhibition in vivo at 1 µg/mL was found to be 36%. On to `O[C@H]1[C@H](O)[C@@H](O)CN2CC[C@H](O)[C@H]12` [castanospermine, (1S,6S,7R,8R,8aR)-1,6,7,8-tetrahydroxyindolizidine], for which the “inhibition of experimental metastasis” value in experiment [3] was “inhibition of experimental metastasis”.
